Results taken from US20020183340A1, “4-(4'-HYDROXYPHENYL) AMINO-6,7-DIMETHOXYQUINAZOLINE TO PREVENT DEVELOPMENT OF COLORECTAL CANCER” (Parker Hughes Institute, priority 1999, published 2002).

System: APC^min mouse model
Test: APC^min mouse model of colorectal cancer development (chow supplemented with compound)
Format: in vivo, mice
Details: for Probability Of Survival: APC^min mice fed chow with 0.3 wt % compound once a week from six weeks of age, n = 23
Excerpt: An APC^min mouse model was used to test the ability of 4-(4′-hydroxyphenyl)-amino-6,7-dimethoxyquinazoline to prevent the development of colorectal cancer. A total of 23 APC^min mice were fed rodent chow, which was supplemented with 0.3 wt % 4-(4′-hydroxyphenyl)-amino-6,7-dimethoxyquinazoline once a week starting at six weeks of age. A control group of 30 mice were fed rodent chow without 4-(4′-hydroxyphenyl)-amino-6,7-dimethoxyquinazoline. The health status of the mice was monitored for thirty weeks. Table 1 below describes the Probability of Survival for each group of mice over a period of 210 days.

SMILES: COc1cc2ncnc(Nc3ccc(O)cc3)c2cc1OC [4-(4′-hydroxyphenyl)-amino-6,7-dimethoxyquinazoline]
- Probability Of Survival (age 90 days): 100 ± 0
- Probability Of Survival (age 120 days): 94 ± 5
- Probability Of Survival (age 150 days): 81 ± 10
- Probability Of Survival (age 180 days): 68 ± 12
- Probability Of Survival (age 210 days): 68 ± 12
- mice still alive (by thirty weeks of age, mice fed compound (17% of the control mice)): 68%
